Measured values reported in patent US7598244B2, “[1,2,4]triazolo[1,5,a]pyrimidin-2-ylurea derivative and use thereof” (Nippon Kayaku Kabushiki Kaisha, priority 2003, dated 2009).

Assays:
[1] = system: MHC class I molecules of T1 cells (human lymphoma cell line 174×CEM.); experiment: Effect on expression of MHC class I from T1 cells (flow cytometry, MFI); assay type: cell-based; details: 3 days culture
Summary of the method: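 EC20 is the compound level that lowers MHC class I MFI by 20% relative to compound-free cultures. Read-out was flow cytometry after FITC W6/32 staining.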

[2] = system: MHC class I molecules of human peripheral blood-derived dendritic cells; experiment: Effect on expression of MHC class I molecules from human peripheral blood-derived dendritic cells; assay type: cell-based; details: dendritic cells matured with TNF-α, 3 days; read-out: EC50 (reduction of 50% of the number of cells wherein MHC class I molecules were highly expressed)
From the text: Effect on Expression of MHC Class I Molecules from Human Peripheral Blood-Derived Dendritic Cells
Monocytes were isolated from human peripheral blood by the specific gravity centrifugation method. Thereafter, using mouse anti-human CD14 antibody-binding microbeads and a magnetic cell separation system (Miltenyi Biotec), CD14 positive cells were separated from the peripheral blood monocytes. The separated CD14 positive cells were suspended in an RPMI 1640 medium containing 10% FBS, and the suspension was then inoculated in a 6-well plate, resulting in a concentration of 1.0×10^6 cells/well. It was cultured at 37° C. for 20 minutes in an incubator containing 5% carbon dioxide. […] Thereafter, RPMI 1640 containing a 500 U/ml human recombinant […] (hereinafter referred to as GM-CSF; Anapure Bioscientific), 50 ng/ml human recombinant interleukin 4 (hereinafter referred to as IL-4; Pepro Tech), and 10% FBS, was added to the remaining suspension at a concentration of 2 ml/well. The obtained mixture was then cultured at 37° C. in an incubator containing 5% carbon dioxide. When adhesive CD14 positive cells are cultured in the presence of GM-CSF and IL-4, the CD14 positive cells were differentiated into non-adhesive immature dendritic cells. After the cells had been cultured for 7 days, non-adhesive cells were recovered to obtain immature dendritic cells. Using a 6-well plate, the immature dendritic cells (2.5×10^5 cells/well) were cultured in RPMI 1640 containing a 100 U/ml human recombinant tumor necrosis factor-α (hereinafter referred to as TNF-a; Pepro Tech), a test compound, and 10% FBS, at 37° C. for 3 days in an incubator containing 5% carbon dioxide. The dendritic cells became mature as a result of the presence of TNF-α, but in the present test, a test compound was allowed to simultaneously act on the cells. The mature dendritic cells were then stained with fluoroisothiocyanate-labeled mouse anti-human MHC class I monoclonal antibody (an antibody generated from the cell line W6/32 (ATCC No. CRL 1991)). The rate of the number of cells wherein MHC class I molecules were highly expressed to the total number of cells was measured by flow cytometry. The reduction rate of the number of cells wherein MHC class I molecules were highly expressed was calculated using the following formula (2), and the concentrations of test compounds necessary for reduction of 50% (EC50 values) were obtained.
[formula] • Eexp: (The number of cells, wherein MHC class I molecules are highly expressed, in cultured cells containing test compound)/(the total number of cells) • Cexp: (The number of cells, wherein MHC class I molecules are highly expressed, in cultured cells containing no test compounds)/(the total number of cells)

[3] = system: human dendritic cells cultured with human allogenic T cells; experiment: Effect on the ability of human dendritic cells to induce the growth of allogenic T cells ([3H]-thymidine incorporation); assay type: cell-based; details: Homo sapiens; dendritic cells treated 3 days with test compound and TNF-α, then 5 days with allogenic T cells; read-out: IC50 (inhibition of DNA synthesis of lymphocytes)
Method: Effect on the Ability of Human Dendritic Cells to Induce the Growth of Allogenic T Cells
Immature dendritic cells were cultured with a test compound and TNF-α for 3 days by the same method as that described in Test Example 2. The obtained dendritic cells (2.5×10^3 cells/50 μl/well) were cultured together with human allogenic T cells (2.0×10^5 cells/150 μl/well) in a 96-well flat bottom plate at 37° C. for 5 days in an incubator containing 5% carbon dioxide. Thereafter, [^3H]-thymidine (Amersham Pharmacia Biotech) was added thereto at an amount of 1 μCi/10 μl/well, 16 hours before completion of the culture. After completion of the culture, cells were captured on a glass filter using a cell harvester (Skatron Instrument) and then dried. Thereafter, Scintillator ACS-II (Amersham Pharmacia Biotech) was added thereto, and the radioactivity of [^3H]-thymidine incorporated into the cells were then measured using a liquid scintillation counter. The inhibition rate of the DNA synthesis of lymphocytes was calculated using the following formula (3). Thereafter, the concentration of a test compound necessary for inhibition of 50% (IC50 value) was obtained.
[formula] • Eexp: The amount of [^3H]-thymidine incorporated into cultured cells containing test compound • Cexp: The amount of [^3H]-thymidine incorporated into cultured cells containing no test compounds

BALB/c mice = experiment: Effect on mouse plaque forming cells (PFCs) to sheep erythrocytes; assay type: in vivo; details: Intraperitoneal, 25 mg/kg/single administration, twice a day for 4 days
Method: Effect on Mouse Plaque Forming Cells (PFCs)
Sheep erythrocytes (Nippon Seibutsu Zairyo Center, Co., Ltd.) were intraperitoneally administered to each of BALB/c mice (Charles River Japan, Inc.; female; 8-week-old) at an amount of 1.0×10^8 cells. Thereafter, a test compound was administered thereto twice a day for 4 days after the first administration (only once on the first day) (n=4). On the day subsequent to completion of the administration of the test compound, splenic cells were prepared from the mouse, and the number of PFCs to the sheep erythrocytes was counted by the method of Cunninham (Cunninham, A. J. et al., Immunology, vol. 14, p. 599 (1968)). The number of PFCs per number of splenic cells of 1.0×10^6 was obtained. The reduction rate of the number of PFC in the mouse to which the test compound had been administered, to the number of PFCs in a control mouse to which the test compound had not been administered but only a solvent had been administered, was calculated using the following formula (4).
[formula] • Eexp: The number of PFCs per 1×10^6 splenic cells of mouse to which test compound was administered • Cexp: The number of PFCs per 1×10^6 splenic cells of mouse to which solvent was administered

BDF1 mice = experiment: Effect on graft versus host (GVH) reaction, spleen weight measurement method; assay type: in vivo, mouse; details: subcutaneous, twice a day for 7 days
Method: Effect on Graft Versus Host (GVH) Reaction
The effect of the compound on the GVH reaction was determined in accordance with the spleen weight measurement method of Simonsen et al. (Simonsen et al., Annals of the New York Academy of Sciences, p. 73 (1978)). Splenic cells were prepared from C57BL/6 mice (Charles River Japan, Inc.; female; 10-week-old), and the cells (5.0×10^6 cells) were transferred into the abdominal cavity of each of BDF1 mice (Charles River Japan; […]). From the day of transferring of the above cells, the test compound having each diluted concentration or a 5% glucose solution used as a solvent was subcutaneously administered to the BDF1 mice twice a day for 7 consecutive days. Eight days after the transferring of the above cells, the spleen weight of each of the BDF1 mice was measured. The reduction rate of the spleen weight was calculated using the following formula (6). The amount of the test compound necessary for reduction of 50% (ED50 value) was obtained.
[formula] • Eexp: Spleen weight of mouse to which test compound was administered • Cexp: Spleen weight of mouse to which solvent was administered

EC50 [2]	Compound	EC20 (concentration necessary for suppressing 20% of the expression level of MHC class I molecules) [1]	IC50 [3]	Reduction rate (%) of number of PFCs (BALB/c mice)	Inhibition rate (%) (reduction rate of the spleen weight) (BDF1 mice; 25 × 2 mg/kg/single administration)	Inhibition rate (%) (reduction rate of the spleen weight) (BDF1 mice; 50 × 2 mg/kg/single administration)
200 nM	COc1ccc(-c2ccnc3nc(NC(=O)N[C@H]4CC[C@H](O)CC4)nn23)cc1 [Example 037]	200 nM	1360 nM	31.2%		
540 nM	COc1ccc(-c2ccnc3nc(NC(=O)NCc4cccnc4)nn23)cc1 [Example 039]	300 nM	1520 nM		14.1%	29.5%
